From ChEMBL document CHEMBL1201862, “PubChem BioAssay data set” (2004)
Active and inactive are the calls of the source.

How the values were obtained:
[1] = tested on: INS1; assay: beta cell apoptosis inhibitors, cytokine rescue, dose response, luminescence, retest (AID 449756); type: functional, cell-based; details: Rattus norvegicus;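 note: cell death triggered by IL-1 beta plus TNF-alpha plus IFN-gamma mixture; protective hits raise ATP signal compared with cytokine alone wells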
[2] = control 3'UTR Renilla luciferase suppression, dose response, counter-screen for Shn3 inhibitor project, cell-based, Clone20-Shn3RL, cherry-picked (AID 624133); type: functional
[3] = HepG2 cell cytotoxicity, dose response, cytotoxicity control for Shn3 inhibitor project, CellTiter-Glo, cherry-picked (AID 624134); type: functional, cell-based
[4] = target: T1, Hexokinase HKDC1 (Homo sapiens, UniProt Q2TB90); assay: HKDC1 hexokinase activators, dose response, biochemical, W721R variant (AID 504730); type: functional
T1 sequence (Q2TB90 whole entry): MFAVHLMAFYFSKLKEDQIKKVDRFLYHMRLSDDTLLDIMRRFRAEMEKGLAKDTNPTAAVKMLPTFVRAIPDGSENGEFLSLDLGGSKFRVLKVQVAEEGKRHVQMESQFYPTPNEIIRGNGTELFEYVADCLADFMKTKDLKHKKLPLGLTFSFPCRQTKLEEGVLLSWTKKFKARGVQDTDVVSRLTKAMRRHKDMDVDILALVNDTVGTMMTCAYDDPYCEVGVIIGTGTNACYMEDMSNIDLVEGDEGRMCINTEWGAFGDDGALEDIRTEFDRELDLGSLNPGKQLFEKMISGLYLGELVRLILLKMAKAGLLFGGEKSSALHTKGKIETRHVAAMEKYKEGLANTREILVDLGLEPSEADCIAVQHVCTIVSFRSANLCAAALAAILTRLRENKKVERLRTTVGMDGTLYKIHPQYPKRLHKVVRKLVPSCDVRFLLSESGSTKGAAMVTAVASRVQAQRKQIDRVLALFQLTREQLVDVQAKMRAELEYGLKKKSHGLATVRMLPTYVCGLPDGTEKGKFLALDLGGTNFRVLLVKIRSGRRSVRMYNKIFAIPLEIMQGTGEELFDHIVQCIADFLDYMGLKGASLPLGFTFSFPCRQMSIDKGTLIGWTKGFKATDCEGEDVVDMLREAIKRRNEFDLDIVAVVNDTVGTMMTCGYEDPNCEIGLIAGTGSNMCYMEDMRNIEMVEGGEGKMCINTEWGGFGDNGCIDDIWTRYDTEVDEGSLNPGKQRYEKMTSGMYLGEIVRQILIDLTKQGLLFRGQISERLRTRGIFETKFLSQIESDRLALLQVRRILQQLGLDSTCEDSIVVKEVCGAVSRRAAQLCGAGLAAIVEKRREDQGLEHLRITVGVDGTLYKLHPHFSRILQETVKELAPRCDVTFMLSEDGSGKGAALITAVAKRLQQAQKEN

[5] = Shn3 3'UTR reporter inhibitors, dose response, cell-based, Clone20 osteoblasts, firefly luciferase, cherry-picked (AID 624132); type: functional;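 note: firefly luciferase luminescence from reporter carrying the Shn3 3'UTR in osteoblasts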
[6] = target: T2, Hexokinase-1 (Homo sapiens, UniProt P19367); assay: hexokinase 1 activators, dose response, selectivity assay for HKDC1 activator project, biochemical (AID 504762); type: functional
T2 sequence (P19367 whole entry): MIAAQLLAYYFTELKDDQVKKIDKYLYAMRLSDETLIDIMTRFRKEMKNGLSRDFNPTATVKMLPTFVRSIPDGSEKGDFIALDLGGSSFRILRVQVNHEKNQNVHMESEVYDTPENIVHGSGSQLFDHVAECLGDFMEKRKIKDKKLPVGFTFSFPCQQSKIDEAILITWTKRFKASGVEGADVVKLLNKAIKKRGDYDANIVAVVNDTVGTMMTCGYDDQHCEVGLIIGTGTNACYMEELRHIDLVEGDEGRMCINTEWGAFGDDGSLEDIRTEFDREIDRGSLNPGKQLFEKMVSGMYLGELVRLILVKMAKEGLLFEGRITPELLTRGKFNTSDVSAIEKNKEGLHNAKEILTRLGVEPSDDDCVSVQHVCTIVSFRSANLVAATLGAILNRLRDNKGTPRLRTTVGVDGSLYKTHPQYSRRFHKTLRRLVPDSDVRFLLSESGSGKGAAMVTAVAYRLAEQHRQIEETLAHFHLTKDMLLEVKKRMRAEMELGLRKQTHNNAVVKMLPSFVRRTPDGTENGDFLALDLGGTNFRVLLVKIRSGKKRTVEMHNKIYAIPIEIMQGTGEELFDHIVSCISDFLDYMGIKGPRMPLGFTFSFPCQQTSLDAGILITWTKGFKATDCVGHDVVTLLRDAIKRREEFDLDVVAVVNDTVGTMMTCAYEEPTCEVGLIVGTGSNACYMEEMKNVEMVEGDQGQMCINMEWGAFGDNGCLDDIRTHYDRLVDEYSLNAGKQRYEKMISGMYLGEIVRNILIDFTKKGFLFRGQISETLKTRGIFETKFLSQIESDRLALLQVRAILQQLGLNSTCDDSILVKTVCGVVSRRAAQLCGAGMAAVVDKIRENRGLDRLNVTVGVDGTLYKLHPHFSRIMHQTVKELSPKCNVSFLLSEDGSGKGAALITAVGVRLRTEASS

[7] = target: T3, Short transient receptor potential channel 4 (Mus musculus, UniProt Q9QUQ5); assay: mouse TRPC4 channel activators, dose response, cell-based, HEK293 TRPC4/mu-opioid, Fluo-4 calcium (AID 434937); type: functional
T3 sequence (Q9QUQ5 whole entry): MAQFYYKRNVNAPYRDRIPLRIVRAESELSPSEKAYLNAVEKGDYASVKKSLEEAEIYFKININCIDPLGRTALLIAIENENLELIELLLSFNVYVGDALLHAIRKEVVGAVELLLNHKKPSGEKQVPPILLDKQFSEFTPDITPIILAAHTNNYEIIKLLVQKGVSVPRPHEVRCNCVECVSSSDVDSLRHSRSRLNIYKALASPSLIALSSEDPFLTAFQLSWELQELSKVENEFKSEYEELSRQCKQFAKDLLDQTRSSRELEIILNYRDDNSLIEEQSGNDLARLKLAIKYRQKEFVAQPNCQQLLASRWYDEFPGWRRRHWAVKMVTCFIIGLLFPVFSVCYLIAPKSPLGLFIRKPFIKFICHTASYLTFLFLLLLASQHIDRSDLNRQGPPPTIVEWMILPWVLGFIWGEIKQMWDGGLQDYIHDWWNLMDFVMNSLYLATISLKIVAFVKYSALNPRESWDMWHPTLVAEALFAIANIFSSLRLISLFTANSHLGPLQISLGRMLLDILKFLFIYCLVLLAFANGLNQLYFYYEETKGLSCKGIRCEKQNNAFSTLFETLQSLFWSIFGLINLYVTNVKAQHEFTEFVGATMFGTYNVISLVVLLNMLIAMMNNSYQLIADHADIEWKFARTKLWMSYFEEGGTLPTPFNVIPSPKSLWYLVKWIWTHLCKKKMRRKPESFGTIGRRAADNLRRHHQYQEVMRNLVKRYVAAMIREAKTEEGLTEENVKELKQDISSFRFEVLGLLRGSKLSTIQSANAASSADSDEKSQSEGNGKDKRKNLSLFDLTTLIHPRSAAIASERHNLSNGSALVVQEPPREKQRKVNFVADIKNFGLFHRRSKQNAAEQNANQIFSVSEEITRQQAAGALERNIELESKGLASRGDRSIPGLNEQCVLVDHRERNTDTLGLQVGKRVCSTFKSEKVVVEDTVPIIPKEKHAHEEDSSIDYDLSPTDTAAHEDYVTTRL

[8] = target: T3, Short transient receptor potential channel 4; assay: mouse TRPC4 channel inhibitors, dose response, cell-based, HEK293 TRPC4/mu-opioid, Fluo-4 calcium (AID 434942); type: functional;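 note: potency of inhibitors blocking the TRPC4 calcium response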
[9] = growth suppression of beta-catenin-knockout colon cells, dose response, cell-based, HCT116, human colon tumor (AID 1045); type: functional;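 note: HCT116 colon tumor cells with beta catenin knocked out; cells exposed to compound for 60 hours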
[10] = growth suppression of PTEN-null colon cells, dose response, cell-based, HCT116 PTEN knockout (AID 1047); type: functional;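 note: HCT116 colon tumor cells with PTEN knocked out; cells exposed to compound for 60 hours before readout; potency for loss of cell viability measured by luminescence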
[11] = target: Voltage-dependent T-type calcium channel subunit alpha-1H (Homo sapiens, UniProt O95180); type: functional;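 note: channel activity triggered by adding a high calcium stimulation buffer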
[12] = target: T4, Runt-related transcription factor 1/Core-binding factor subunit beta (Homo sapiens, UniProt Q01196+Q13951); assay: inhibitors of RUNX1 Runt–CBFb-SMMHC binding, primary screen, biochemical, FRET, Cerulean-Runt, Venus-CBFb-SMMHC, uHTS (AID 1434); type: protein assay;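 note: partner is the CBFb-SMMHC leukemia fusion protein rather than wild-type CBFb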
[13] = target: T5, Apoptotic protease-activating factor 1 (Homo sapiens, UniProt O14727); type: functional
T5 sequence (O14727 whole entry): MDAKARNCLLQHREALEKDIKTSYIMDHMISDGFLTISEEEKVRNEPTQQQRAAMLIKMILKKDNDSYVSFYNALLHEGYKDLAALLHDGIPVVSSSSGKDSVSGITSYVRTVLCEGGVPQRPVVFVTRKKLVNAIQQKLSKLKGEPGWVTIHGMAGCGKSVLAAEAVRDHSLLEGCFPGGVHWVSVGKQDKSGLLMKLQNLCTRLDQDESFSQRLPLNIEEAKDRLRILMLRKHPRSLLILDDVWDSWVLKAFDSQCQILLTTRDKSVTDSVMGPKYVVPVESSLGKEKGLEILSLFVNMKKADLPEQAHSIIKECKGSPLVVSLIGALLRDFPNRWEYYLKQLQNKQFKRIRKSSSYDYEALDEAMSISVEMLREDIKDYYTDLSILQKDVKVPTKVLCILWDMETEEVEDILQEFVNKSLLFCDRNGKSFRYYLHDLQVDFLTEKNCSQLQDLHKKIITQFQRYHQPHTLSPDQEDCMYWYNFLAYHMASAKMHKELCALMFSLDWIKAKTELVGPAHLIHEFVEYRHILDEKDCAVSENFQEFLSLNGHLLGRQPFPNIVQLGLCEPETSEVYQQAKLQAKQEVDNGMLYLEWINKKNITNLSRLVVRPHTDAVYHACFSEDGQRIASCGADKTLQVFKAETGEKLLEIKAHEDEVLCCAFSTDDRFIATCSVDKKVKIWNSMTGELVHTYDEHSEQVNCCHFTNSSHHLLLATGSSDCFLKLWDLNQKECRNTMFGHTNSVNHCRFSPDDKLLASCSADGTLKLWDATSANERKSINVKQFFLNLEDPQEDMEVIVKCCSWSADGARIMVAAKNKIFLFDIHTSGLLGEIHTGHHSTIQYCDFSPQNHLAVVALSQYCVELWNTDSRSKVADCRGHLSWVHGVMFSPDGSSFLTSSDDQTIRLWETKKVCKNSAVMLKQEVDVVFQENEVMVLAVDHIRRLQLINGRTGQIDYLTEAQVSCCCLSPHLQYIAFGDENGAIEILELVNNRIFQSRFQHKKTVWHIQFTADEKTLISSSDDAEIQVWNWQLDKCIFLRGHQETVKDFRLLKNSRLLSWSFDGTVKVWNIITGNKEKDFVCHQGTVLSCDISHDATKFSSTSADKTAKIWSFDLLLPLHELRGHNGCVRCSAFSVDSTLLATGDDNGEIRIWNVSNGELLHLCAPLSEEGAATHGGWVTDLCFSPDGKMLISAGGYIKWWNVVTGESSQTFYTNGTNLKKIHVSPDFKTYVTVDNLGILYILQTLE

[14] = target: T4, Runt-related transcription factor 1/Core-binding factor subunit beta; assay: inhibitors of RUNX1 Runt–CBFb-SMMHC binding, biochemical, TR-FRET (AID 1438); type: protein assay
[15] = target: T6, Lysine-specific demethylase 4C (Homo sapiens, UniProt Q9H3R0); assay: GASC-1 (JMJD2C) histone demethylase inhibitors, dose response, biochemical, DELFIA europium, cherry-picked samples (AID 488835); type: functional
T6 sequence (Q9H3R0 whole entry): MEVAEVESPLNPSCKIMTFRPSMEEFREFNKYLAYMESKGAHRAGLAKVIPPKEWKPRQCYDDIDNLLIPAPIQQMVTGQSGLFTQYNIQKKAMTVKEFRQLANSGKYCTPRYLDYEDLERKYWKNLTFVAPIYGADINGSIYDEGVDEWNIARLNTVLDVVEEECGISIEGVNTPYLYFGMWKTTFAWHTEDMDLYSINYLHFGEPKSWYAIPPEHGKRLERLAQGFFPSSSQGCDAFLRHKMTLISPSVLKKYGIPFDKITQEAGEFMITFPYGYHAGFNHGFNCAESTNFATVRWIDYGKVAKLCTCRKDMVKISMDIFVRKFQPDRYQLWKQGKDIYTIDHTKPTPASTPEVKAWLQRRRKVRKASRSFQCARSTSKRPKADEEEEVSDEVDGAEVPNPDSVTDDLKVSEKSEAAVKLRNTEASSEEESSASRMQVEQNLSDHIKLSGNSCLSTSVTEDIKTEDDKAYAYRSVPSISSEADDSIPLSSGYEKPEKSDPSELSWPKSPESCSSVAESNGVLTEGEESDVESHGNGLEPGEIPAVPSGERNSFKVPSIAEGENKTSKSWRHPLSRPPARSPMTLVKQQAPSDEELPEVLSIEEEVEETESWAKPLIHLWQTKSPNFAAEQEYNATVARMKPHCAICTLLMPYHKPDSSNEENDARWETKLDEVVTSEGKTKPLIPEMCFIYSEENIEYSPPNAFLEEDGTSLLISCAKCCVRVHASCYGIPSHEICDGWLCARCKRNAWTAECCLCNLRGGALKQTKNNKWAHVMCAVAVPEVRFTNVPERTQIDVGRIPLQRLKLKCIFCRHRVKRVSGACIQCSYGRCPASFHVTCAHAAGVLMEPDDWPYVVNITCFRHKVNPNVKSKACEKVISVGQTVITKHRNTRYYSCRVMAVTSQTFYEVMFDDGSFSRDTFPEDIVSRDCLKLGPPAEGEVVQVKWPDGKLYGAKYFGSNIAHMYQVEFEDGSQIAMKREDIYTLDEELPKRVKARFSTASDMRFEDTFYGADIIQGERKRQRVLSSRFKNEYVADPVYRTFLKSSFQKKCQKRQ

T4 sequence (Q01196 whole entry, the tested form may be a part): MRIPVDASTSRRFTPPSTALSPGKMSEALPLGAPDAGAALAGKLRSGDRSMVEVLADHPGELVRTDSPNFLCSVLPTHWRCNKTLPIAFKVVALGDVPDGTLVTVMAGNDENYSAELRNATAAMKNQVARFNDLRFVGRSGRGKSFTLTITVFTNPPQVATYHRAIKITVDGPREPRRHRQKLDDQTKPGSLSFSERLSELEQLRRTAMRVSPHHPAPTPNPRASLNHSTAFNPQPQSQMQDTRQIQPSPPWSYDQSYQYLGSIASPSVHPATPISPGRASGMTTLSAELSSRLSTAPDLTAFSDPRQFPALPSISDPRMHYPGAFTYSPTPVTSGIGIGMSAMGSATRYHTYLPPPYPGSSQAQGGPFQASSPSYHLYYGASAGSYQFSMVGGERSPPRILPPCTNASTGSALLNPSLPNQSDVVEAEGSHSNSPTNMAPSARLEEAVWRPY
T4 sequence (Q13951 whole entry, the tested form may be a part): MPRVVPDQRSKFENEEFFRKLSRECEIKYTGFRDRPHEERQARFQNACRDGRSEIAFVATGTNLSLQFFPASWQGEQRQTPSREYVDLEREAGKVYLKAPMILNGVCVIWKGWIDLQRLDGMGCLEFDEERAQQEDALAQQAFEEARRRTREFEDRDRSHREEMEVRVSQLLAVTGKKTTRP
Chain of Voltage-dependent T-type calcium channel subunit alpha-1H (O95180 whole entry, the tested form may be a part): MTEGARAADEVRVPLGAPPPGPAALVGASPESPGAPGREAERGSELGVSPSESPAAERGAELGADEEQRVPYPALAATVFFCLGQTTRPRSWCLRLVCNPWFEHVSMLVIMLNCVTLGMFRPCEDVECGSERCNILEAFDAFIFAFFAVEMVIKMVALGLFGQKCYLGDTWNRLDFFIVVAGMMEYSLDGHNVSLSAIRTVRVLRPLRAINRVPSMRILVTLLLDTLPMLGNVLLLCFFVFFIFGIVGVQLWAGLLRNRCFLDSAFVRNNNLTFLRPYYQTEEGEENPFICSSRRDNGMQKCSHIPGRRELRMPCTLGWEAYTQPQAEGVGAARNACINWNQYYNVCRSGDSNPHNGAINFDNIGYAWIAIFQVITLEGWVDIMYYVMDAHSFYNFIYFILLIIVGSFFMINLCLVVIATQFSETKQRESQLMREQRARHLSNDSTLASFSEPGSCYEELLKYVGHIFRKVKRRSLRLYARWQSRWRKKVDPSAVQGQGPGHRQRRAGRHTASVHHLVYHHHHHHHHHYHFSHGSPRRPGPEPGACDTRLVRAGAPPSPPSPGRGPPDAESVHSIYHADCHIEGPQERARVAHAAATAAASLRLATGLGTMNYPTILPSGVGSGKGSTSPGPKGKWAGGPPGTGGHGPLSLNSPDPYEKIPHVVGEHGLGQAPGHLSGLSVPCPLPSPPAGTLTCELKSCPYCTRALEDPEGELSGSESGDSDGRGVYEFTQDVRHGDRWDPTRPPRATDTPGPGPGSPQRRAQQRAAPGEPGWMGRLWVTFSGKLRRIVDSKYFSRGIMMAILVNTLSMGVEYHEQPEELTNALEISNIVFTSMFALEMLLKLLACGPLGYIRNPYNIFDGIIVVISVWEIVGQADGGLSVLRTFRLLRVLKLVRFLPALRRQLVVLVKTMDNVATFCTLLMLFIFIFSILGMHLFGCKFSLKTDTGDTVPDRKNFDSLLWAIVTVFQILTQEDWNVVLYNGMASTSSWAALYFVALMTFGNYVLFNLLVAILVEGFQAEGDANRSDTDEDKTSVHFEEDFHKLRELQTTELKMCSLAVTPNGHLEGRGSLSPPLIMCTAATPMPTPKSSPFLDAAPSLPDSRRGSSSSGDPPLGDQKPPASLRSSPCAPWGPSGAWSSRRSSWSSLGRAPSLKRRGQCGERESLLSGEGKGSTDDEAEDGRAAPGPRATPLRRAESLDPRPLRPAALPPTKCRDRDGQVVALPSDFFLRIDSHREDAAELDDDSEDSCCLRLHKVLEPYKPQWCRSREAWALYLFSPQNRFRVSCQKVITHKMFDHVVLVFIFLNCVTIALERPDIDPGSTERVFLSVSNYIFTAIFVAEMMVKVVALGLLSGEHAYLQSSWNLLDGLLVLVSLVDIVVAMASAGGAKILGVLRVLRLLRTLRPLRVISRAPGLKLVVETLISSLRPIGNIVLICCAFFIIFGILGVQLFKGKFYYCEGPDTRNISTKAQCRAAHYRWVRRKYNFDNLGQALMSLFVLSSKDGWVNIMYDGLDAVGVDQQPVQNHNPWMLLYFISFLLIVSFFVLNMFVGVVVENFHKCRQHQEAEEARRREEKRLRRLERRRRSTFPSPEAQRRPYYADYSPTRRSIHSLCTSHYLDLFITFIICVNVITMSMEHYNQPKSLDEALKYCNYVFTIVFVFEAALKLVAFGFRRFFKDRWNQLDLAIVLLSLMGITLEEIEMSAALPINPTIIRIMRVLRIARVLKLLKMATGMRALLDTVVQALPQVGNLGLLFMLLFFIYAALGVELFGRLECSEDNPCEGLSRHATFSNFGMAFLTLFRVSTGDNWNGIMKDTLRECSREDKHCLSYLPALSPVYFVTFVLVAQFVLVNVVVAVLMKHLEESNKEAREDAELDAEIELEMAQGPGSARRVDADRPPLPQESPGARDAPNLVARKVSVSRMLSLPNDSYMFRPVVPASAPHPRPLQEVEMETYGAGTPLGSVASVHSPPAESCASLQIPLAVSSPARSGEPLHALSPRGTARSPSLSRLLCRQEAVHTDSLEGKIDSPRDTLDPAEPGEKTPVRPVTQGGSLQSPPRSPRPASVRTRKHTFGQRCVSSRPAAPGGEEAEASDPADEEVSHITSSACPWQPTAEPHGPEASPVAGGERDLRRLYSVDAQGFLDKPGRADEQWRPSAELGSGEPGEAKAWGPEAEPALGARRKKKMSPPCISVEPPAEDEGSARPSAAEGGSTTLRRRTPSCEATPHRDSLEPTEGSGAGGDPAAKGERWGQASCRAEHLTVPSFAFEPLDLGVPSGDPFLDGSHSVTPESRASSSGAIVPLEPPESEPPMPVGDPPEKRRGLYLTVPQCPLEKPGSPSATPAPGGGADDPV

C=CCn1nc([N+](=O)[O-])nc1Sc1cccc2cccnc12
AC50 [1]: 1.24 µM (active) | AC50 [2]: 7.05 µM (active) | AC50 [3]: 30.3 µM (active) | EC50 [4]: > 80 µM (inactive) | AC50 [5]: 10.7 µM (active) | EC50 [6]: > 80 µM (inactive)

Clc1ccc(COn2c(-c3ccc(Cl)cc3Cl)nc3ncccc32)cc1
EC50 [7]: 4.22 µM (active) | EC50 [8]: 1.33 µM (active)

O=C(CN1CCN(c2ncc(C(F)(F)F)cc2Cl)CC1)N1CCN(c2ncc(C(F)(F)F)cc2Cl)CC1
EC50 [9]: 49.1 µM (active) | EC50 [10]: 48.4 µM (active) | EC50 [11]: 8.68 µM (active) | EC50 [7]: 3.35 µM (active)

COCCCNC(=O)c1c(NC(=O)c2ccco2)n(Cc2ccccc2)c2nc3ccccc3nc12
IC50 [12]: 0.34 µM (active) | IC50 [13]: > 100 µM (inactive) | IC50 [14]: 16 µM (active)

CC(C)(C)c1ccc(-c2csc(NNC3=NCCCCC3)n2)cc1
AC50 [15]: 22.3 µM (active) | EC50 [4]: 38.1 µM (inactive) | EC50 [6]: 47.4 µM (inactive)
